Assay results published in US6051712A, “Piperidine derivatives having renin inhibiting activity” (Hoffmann-La Roche Inc., priority 1995, dated 2000).
Where a name gives a salt, the structure may show the parent alone.

What follows are molecules tested against T1, human renin (Homo sapiens, UniProt P00797) (assay: In vitro test with pure human renin (angiotensin I production from human tetradecapeptide renin substrate, measured by RIA)). Settings: not given.
T1 sequence (P00797 67-406): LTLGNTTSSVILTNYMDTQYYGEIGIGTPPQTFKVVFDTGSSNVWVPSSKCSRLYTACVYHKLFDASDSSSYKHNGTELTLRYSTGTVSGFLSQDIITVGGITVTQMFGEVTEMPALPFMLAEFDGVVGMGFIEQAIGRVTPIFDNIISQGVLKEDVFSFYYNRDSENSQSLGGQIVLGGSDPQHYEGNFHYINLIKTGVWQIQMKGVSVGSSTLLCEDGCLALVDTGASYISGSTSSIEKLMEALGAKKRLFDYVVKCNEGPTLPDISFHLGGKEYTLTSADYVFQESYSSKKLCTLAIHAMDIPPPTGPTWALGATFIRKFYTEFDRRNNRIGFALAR
Assay type: biochemical
Procedure: In vitro test with pure human renin
The test is carried out in Eppendorf test tubes. The incubation mixture consists of (1) 100 μl of human renin in buffer A (0.1M sodium phosphate solution, pH 7.4, containing 0.1% bovine serum albumin, 0.1% sodium azide and 1 mM ethylenediaminetetraacetic acid), sufficient for a renin activity of 2-3 ng of angiotensin l/ml/hr.; (2) 145 μl of buffer A: (3) 30 μl of 10 mM human tetradecapeptide renin substrate (hTD) in 10 mM hydrochloric acid: (4) […] of dimethyl sulphoxide with or without inhibitor and (5) 10 μl of a 0.03 molar solution of hydroxyquinoline sulphate in water.
The samples are incubated for three hours at 37° C. and, respectively, 4° C. in triplicate. 2×100 μl samples per test tube are used in order to measure the production of angiotensin I via RIA (standard radioimmunoassay; clinical assay solid phase kit). […] The production of angiotensin I is determined by the difference between the test at 37° C, and that at 4° C.
The following controls are carried out:
(a) Incubation of hTD samples without renin and without inhibitor at 37° C. and 4° C. The difference between these two values gives the base value of the angiotensin I production.
(b) Incubation of hTD samples with renin, but without inhibitor at 37° C. and 4° C. The difference between these values gives the maximum value of the angiotensin I production.
In each sample the base value of the angiotensin I production is subtracted from the angiotensin I production which is determined. The difference between the maximum value and the base value gives the value of the maximum substrate hydrolysis (=100%) by renin.
The IC50 values are determined from a linear regression curve from a logit-log plot.

SMILES | IC50
c1ccc(COCCCOc2ccc([C@H]3CCNC[C@@H]3OCc3ccc4ccccc4c3)cc2)cc1 (racemic) [M, (3RS,4RS)-4-[4-(3-benzyloxy-propoxy)-phenyl]-3-(naphthalen-2-ylmethoxy)-piperidine] | 8 nM
c1ccc(-c2noc(COc3ccc([C@H]4CCNC[C@@H]4OCc4ccc5ccccc5c4)cc3)n2)cc1 (racemic) [E, (3RS,4RS)-3-(naphthalen-2-ylmethoxy)-4-[4-(3-phenyl-[1,2,4]oxadiazol-5-ylmethoxy)-phenyl]-piperidine trifluoroacetate] | 41 nM
Fc1ccc([C@H]2C[C@@H]3CC[C@@H](N3)[C@@H]2OCc2cc(OCc3ccccc3)c3ccccc3c2)cc1 (racemic) [L, (1RS,2RS,3RS,5SR)-2-(4-benzyloxy-naphthalen-2-ylmethoxy)-3-(4-fluoro-phenyl)-8-aza-bicyclo[3.2.1]octane] | 3080 nM

Same assay, conditions: pure human renin, pH 7.4, three hours at 37° C. (less 4° C.), human tetradecapeptide substrate, angiotensin I by RIA; read-out: IC50 values (concentration of the inhibitor at which the enzymatic activity is inhibited by 50%)

SMILES | IC50
COC[C@@H]1CNC[C@H](OCc2ccc3ccccc3c2)[C@H]1c1ccc(COCc2ccccc2)cc1 (racemic) [J, (3SR,4RS,5RS)-4-(4-benzyloxymethyl-phenyl)-3-methoxymethyl-5-(naphthalen-2-ylmethoxy)-piperidine] | 17 nM
COc1cc(CO[C@H]2CNC[C@@H](OCc3cc(OC)c(OC)c(OC)c3)[C@@H]2c2ccc(OCCCOCc3ccccc3)cc2)cc(OC)c1OC [MM, (3R,4s,5S)-4-[4-(3-benzyloxy-propoxy)-phenyl]-3,5-bis-(3,4,5-trimethoxy-benzyloxy)-piperidine] | 0.5 nM
OC[C@@H]1CNC[C@H](OCc2ccc3ccccc3c2)[C@H]1c1ccc(OCCCOCc2ccccc2)cc1 (relative stereo) [HH, (3SR,4RS,5RS)[4[4(3-Benzyloxy-propoxy)-phenyl5-(naphthalen-2-ylmethoxy)-pperidin-3-ylmethanol hydrochloride] | 6 nM
CN(C)CCN(C)C[C@@H]1CNC[C@H](OCc2ccc3ccccc3c2)[C@H]1c1ccc(OCCCOCc2ccccc2)cc1 (relative stereo) [II] | 2 nM
c1ccc(COCCCOc2ccc([C@H]3CCNC[C@@H]3OCc3ccc4c(c3)OCCO4)cc2)cc1 (racemic) [D, (3RS,4RS)-4-[4-(3-benzyloxy-propoxy)-phenyl]-3-(2,3-dihydro-benzo[1,4]dioxin-6-ylmethoxy)-piperidine] | 40 nM
OCC(O)COCc1ccc2ccc(CO[C@H]3CNCC[C@@H]3c3ccc(OCCCOCc4ccccc4)cc3)cc2c1 (mixture of isomers) [T, a mixture of (3RS,4RS)- and (3SR,4SR)-4-[4-(3-benzyloxy-propoxy)-phenyl]-3-[7-[(RS)-2,3-dihydroxy-propoxymethyl]-naphthalen-2-ylmethoxy]-piperidine] | 5 nM
CN1CCN(CCO[C@@H]2CNC[C@H](OCc3ccc4ccccc4c3)[C@H]2c2ccc(OCCCOCc3ccccc3)cc2)CC1 (racemic) [X, 1-{2-[(3RS,4RS,5SR)-4-[4-(3-benzyloxy-propoxy)-phenyl]-3-(naphthalen-2-ylmethoxy)-piperidin-5-yloxy]-ethyl}-4-methyl-piperazine] | 3 nM
CCN(CC)C[C@@H]1CNC[C@H](OCc2ccc3ccccc3c2)[C@H]1c1ccc(OCCCOCc2ccccc2)cc1 (relative stereo) [JJ] | 2 nM
COc1ccccc1COc1cc(CO[C@H]2CNCC[C@@H]2c2ccc(OCCOC(=O)c3ccccc3)cc2)cc2ccccc12 (racemic) [C, (3RS,4RS)-2-[4-[3-[4-(2-methoxy-benzyloxy)-naphthalen-2-ylmethoxy]-piperidin-4-yl]-phenoxy]-ethyl benzoate hydrochloride] | 70 nM
Fc1ccc([C@H]2CCNC[C@@H]2OCc2cc(OCc3ccccc3)c3ccccc3c2)cc1 [RR, (3R,4R)3-(4-Benzyloxy-naphthalen-2-ylmethoxy)-4-(4-fluoro-phenyl)-piperidne] | 270 nM
OCC(O)COc1ccc2ccc(CO[C@H]3CNCC[C@@H]3c3ccc(OCCCOCc4ccccc4)cc3)cc2c1 (mixture of isomers) [O, a mixture of (RS)- and (SR)-3-[7-[(3RS,4RS)-4-[4-(3-benzyloxy-propoxy)-phenyl]-piperidin-3-yloxymethyl]-naphthalen-2-yloxy]-propane-1,2-diol] | 17 nM
COc1ccccc1COCCCOc1ccc([C@H]2CCNC[C@@H]2OCc2ccc3ccncc3c2)cc1 (racemic) [XX, (3RS,4RS)-3-(isoquinolin-7-ylmethoxy)-4-[4-[3-(2-methoxy-benzyloxy)-propoxy]-phenyl]-piperidine] | 0.8 nM
c1ccc(-c2cc(COc3ccc([C@H]4CCNC[C@@H]4OCc4ccc5ccccc5c4)cc3)on2)cc1 (racemic) [F, (3RS,4RS)-3-(naphthalen-2-ylmethoxy)-4-[4-(3-phenyl-isoxazol-5-ylmethoxy)-phenyl]-piperidine trifluoroacetate] | 57 nM
COc1ccc(CO[C@H]2CNC[C@@H](OCc3ccc(OC)cc3)[C@@H]2c2ccc(OCCCOCc3ccccc3)cc2)cc1 [AA, (3R,4s,5S)-4-[4-(3-benzyloxy-propoxy)-phenyl]-3,5-bis-(4-methoxy-benzyloxy)-piperidine] | 1 nM
O=C1NCCN1C[C@@H]1CNC[C@H](OCc2ccc3ccccc3c2)[C@H]1c1ccc(OCCCOCc2ccccc2)cc1 (relative stereo) [VV] | 2 nM
COc1ccccc1COCCCOc1ccc([C@H]2CCNC[C@@H]2OCc2ccc3cccnc3c2)cc1 (racemic) [OO, (3RS,4RS)-4-[4-[3-(2-methoxy-benzyloxy)-propoxy]-phenyl]-3-(quinolin-7-ylmethoxy)-piperidine] | 6 nM
OCCCO[C@@H]1CNC[C@H](OCc2ccc3ccccc3c2)[C@H]1c1ccc(OCCCOCc2ccccc2)cc1 (racemic) [W, 3-[(3RS,4SR,5SR)-4-[4-(3-benzyloxy-propoxy)-phenyl]-3-(naphthalen-2-ylmethoxy)-piperidin-5-yloxy]-propan-1-ol] | 2 nM
COc1cc(CO[C@H]2CNCC[C@@H]2c2ccc(OCCCC3CCCCC3)nc2)c(OC)c2ccccc12 (relative stereo) [GG, (3'RS,4'RS)6-(3-Cyclohexyl-propoxy)-3(1,4-dimethoxy-naphthalen-2-ylmethox)-1',2',3',4',5',6hexahydro-[3,4']bipyridine] | 1 nM
CN1CCN(CCCNC(=O)OC[C@@H]2CNC[C@H](OCc3ccc4ccccc4c3)[C@H]2c2ccc(OCCCOCc3ccccc3)cc2)CC1 (relative stereo) [DD] | 1 nM
O=C(OCCOc1ccc([C@H]2CCNC[C@@H]2OCc2ccc3ccccc3c2)cc1)c1cccs1 (racemic) [A, (3RS,4RS)-2-[4-(3-naphthalen-2-ylmethoxy-piperidin-4-yl)-phenoxy]-ethylthiophene-2-carboxylate hydrochloride] | 11 nM
COc1cc(CO[C@H]2CNCC[C@@H]2c2cnc(OCCCCC3CCCCC3)nc2)c(OC)c2ccccc12 (relative stereo) [FF] | 0.6 nM
Fc1ccc([C@@H]2CCNC[C@H]2OCc2cc(OCc3ccccc3)c3ccccc3c2)cc1 [SS, (3S,4S)3-(4-Benzyloxy-naphthalen-2-ylmethoxy)-4-(4-fluoro-phenyl)-piperidne] | 132000 nM
COc1ccccc1COCCCOc1ccc([C@H]2CCNC[C@@H]2OCc2ccc3c(c2)NCCC3)cc1 (racemic) [YY, (3RS,4RS)-4-[4-[3-(2-methoxy-benzyloxy)-propoxy]-phenyl]-3-(1,2,3,4-tetrahydro-quinolin-7-ylmethoxy)-piperidine] | 0.5 nM
COc1ccccc1OCCCOc1ccc([C@H]2CCNC[C@@H]2OCc2cc(OC)c3ccccc3c2OC)cc1 (relative stereo) [LL] | 1 nM
CCC[C@@H]1CNC[C@H](OCc2cc(OCc3ccccc3)c3ccccc3c2)[C@H]1c1ccc(F)cc1 (racemic) [Compound I, (3RS,4RS,5SR)-3-(4-benzyloxy-naphthalen-2-ylmethoxy)-4-(4-fluoro-phenyl)-5-propyl-piperidine] | 317 nM
COc1cc(CO[C@H]2CNC[C@@H](O)[C@@H]2c2ccc(OCCCOCc3ccccc3)cc2)c(OC)c2ccccc12 (racemic) [S, (3RS,4SR,5SR)-4-[4-(3-benzyloxy-propoxy)-phenyl]-3-(1,4-dimethoxy-naphthalen-2-ylmethoxy)-piperidin-5-ol] | 2 nM
OCCOCc1ccc2ccc(CO[C@H]3CNCC[C@@H]3c3ccc(OCCCOCc4ccccc4)cc3)cc2c1 (racemic) [PP, 2-(7-{(3RS,4RS)-4-[4-(3-benzyloxy-propoxy)-phenyl]-piperidin-3-yloxymethyl}-naphthalen-2-ylmethoxy)-ethanol] | 2 nM
